According to US20240299328A1, “COMPOSITIONS COMPRISING 15-HEPE AND METHODS OF TREATING AND/OR PREVENTING HEMATOLOGIC DISORDERS AND RELATED DISEASES” (Afimmune Limited, priority 2023, published 2024):
Read-outs that look alike come from different tables or passages of the source.

Columns and labels:
UUO mice [1] = assay type: in vivo
Description: UUO Surgery: On day 0 of the study, UUO surgery was performed on mice under pentobarbital sodium anesthesia. The mouse's hair was first shaved and then abdomen cut open to exteriorize the mouse's left ureter. The ureter was ligated 4-0 nylon sutures at two points. The mouse's peritoneum and skin were then closed with sutures, and the mouse transferred to a clean cage until recovered from the anesthesia. Sham operated mice had their left ureter exposed but not ligated. […]
Animals: Seven-week-old female C57BL/6 mice (i.e., animals) were obtained and were housed and fed with a normal diet under controlled conditions. The animals were maintained in a specific-pathogen free (SPF) facility under controlled conditions of temperature (e.g., 23±2° C.), humidity (e.g., 45±10%), lighting (e.g., 12-hour artificial light and dark cycles; light from 8:00 to 20:00) and air exchange. A high pressure was maintained in the experimental room to prevent contamination of the facility. The animals were housed in TPX cages with a maximum of 4 mice per cage. Sterilized Paper-Clean was used for bedding and replaced once a week. Sterilized solid normal diet was provided ad libitum, being placed in a metal lid on the top of the cage. Pure water was also provided ad libitum from a water bottle equipped with a rubber stopper and a sipper tube. Water bottles were replaced once a week, cleaned, and sterilized in an autoclave and reused. Mice were identified by ear punch and each cage was labeled with a specific identification code.
Animal Monitoring and Sacrifice: The viability, clinical signs and behavior for the mice were monitored daily. Individual body weight was measured daily before treatment during the treatment period. […] The animals were sacrificed by exsanguination through direct cardiac puncture under isoflurane anesthesia at Day 14.

UUO mice [2] = assay: UUO study: Sirius red staining, kidney fibrosis area; assay type: in vivo
Description: Histopathological analysis: To visualize collagen deposition, kidney sections were stained using picro-Sirius red solution. For quantification of interstitial fibrosis area, bright field images in the corticomedullary region were captured using a digital camera at 200-fold magnification, and the positive areas in 5 fields/section were measured.

[3] = system: α-SMA, TIMP-1, TGF-β and Collagen Type 1 mRNA; assay: UUO study: quantitative RT-PCR of kidney; assay type: in vivo; details: UUO mice kidney, normalized to 36B4, Day 14, mean ± SD
Description: Quantitative RT-PCR: Total ribonucleic acid (RNA) was extracted from kidney samples using RNAiso. One μg of RNA was reverse-transcribed using a reaction mixture containing […] (mM) of magnesium chloride (MgCl2), 40 U RNase inhibitor, 0.5 mM dNTP, 6.28 µM random hexamer, 5× first strand buffer, 10 mM dithiothreitol and 200 U MMLV-RT in a final volume of 20 μL. The reaction was carried out for 1 hour at 37° C., followed by 5 minutes at 99° C. Real-time PCR was performed using real-time PCR DICE and TB Green™ Premix Ex Taq™ II. To calculate the relative […] (mRNA) expression level, the expression of each gene (e.g., α-SMA, TIMP-1, TGF-β and Collagen Type 1) was normalized to that of reference gene 36B4 (gene symbol: Rplp0). Information regarding the PCR-primer sets and the plate layout are described in Tables 1 and 2.

[4] = system: adhesion of SCD patient RBCs to heme-activated HUVECs; assay: Endothelialized microfluidic system: SCD patient RBC adhesion to heme-activated HUVECs; assay type: cell-based, human; details: 6 hours, n=7; for adhesion of RBCs to heme-activated endothelium: treatment of RBCs; for adhesion of SCD patient RBCs to endothelium: treatment of heme-activated HUVECs
Description: Whole blood samples were collected from 7 SCD subjects with HbSS genotype at University Hospitals Cleveland Medical Center, Cleveland, OH, USA. RBCs were isolated after centrifugation of whole blood collected in EDTA and were resuspended in basal cell culture medium (EBM; Lonza, Morristown, NJ, USA) with 10 mM of HEPES to reach 20% hematocrit. Human umbilical vein endothelial cells (HUVECs; Lonza, Morristown, NJ, USA) were seeded within the microfluidic channels and cultured for at least 72 hours at 15 dyne/cm2 prior to experiments. Tested concentrations of 15(S)-HEPE were selected based on clinical pharmacokinetics for 15(S)-HEPE at 2 g/day and 4 g/day Epeleuton doses. Incubation of RBCs or HUVECs with 15(S)-HEPE was conducted at 37° C. for 6 hours. In one experiment 15(S)-HEPE-treated tor vehicle-treated RBCs flowed on untreated HUVECs and in the second experiment untreated RBCs flowed on 15(S)-HEPE-treated or vehicle-treated […]. In both cases a short-term acute activation was conducted where RBCs were supplemented with 40 μM heme and injected through the microfluidic channels for 15 minutes. Non-adherent RBCs were washed with basal cell culture medium. Phase-contrast images of the remaining RBCs were recorded using inverted microscope (DMi8 Leica Microsystems Inc. Deerfield, IL, USA) and the images were analyzed based on previous published methods. Statistical significance was assessed using paired t-test

[5] = system: TβR-I, TβR-II, TβR-III, EGFR and caveolin-1 in Mv1Lu cells; assay: Sucrose density gradient analysis of TGF-β receptors in Mv1Lu plasma membranes; assay type: cell-based, mink
Description: The sucrose gradient fractions were then analyzed by Western blot analysis using anti-TβR-I (type I TGF-β receptor), anti-TβR-II (type II TGF-β receptor), anti-TβR-III (type III TGF-β receptor, betaglycan), anti-EGFR (epidermal growth factor receptor), and anti-caveolin-1 antibodies.
The sucrose gradient fractions were then analyzed by Western blot analysis using anti-TβR-I (type I TGF-β receptor-FIG. 18C), anti-TβR-II (type II TGF-β receptor-FIG. 18D), anti-TβR-III (type III TGF-β receptor, betaglycan-FIG. 18E), anti-EGFR (epidermal growth factor receptor-FIG. 18F), and anti-caveolin-1 antibodies (FIG. 18G).

[6] = system: TGF-β-stimulated intracellular signaling (SMAD2/3 phosphorylation) in LX2 cells; assay: TGF-β-stimulated SMAD2/3 phosphorylation in LX2 liver stellate cells; assay type: cell-based, human; details: 0 μM to 100 μM for 24 hours, then 30 min TGF-β stimulation
[7] = system: TGF-β signaling in HepG2 cells; assay: TGF-β-induced EMT protein expression and type II TGF-β receptor in HepG2 cells; assay type: cell-based, human
Description: The effects of 15-HEPE on TGF-β-induced signaling and cellular responses were determined. To test the effect of 15-HEPE on TGF-β-induced signaling, the activities of 15-HEPE to regulate TGF-β-stimulated Smad2 phosphorylation and nuclear translocation, both of which are key signaling events leading to TGF-β-induced cellular responses, were tested. One important biological activity of TGF-β is transcriptional activation of genes responsible for epithelial-mesenchymal transition (EMT), which is a crucial event in wound healing, tissue fibrosis, and cancer progression. The effect of 15-HEPE on TGFβ-induced epithelial mesenchymal transition related proteins (such as fibronectin, PAI-1, and N-cadherin etc.) expression in HepG2 and LXR cells were assessed. HepG2 cells (human hepatoma cell line) were treated in increasing doses of 15-HEPE stage II in DMEM containing 0.1% of FBS for 1 hour and continually stimulated with or without 200 picomolar (pM) of TGF-β for 48 hours. […] HepG2 cells (human hepatoma cell line) were treated in increasing doses of 15-HEPE stage II in DMEM containing 0.1% of FBS for 1 hour and continually stimulated with or without 200 picomolar (pM) of TGF-β for 48 hours. The two panels shown in FIG. 18A are two separate experiments run under the same experimental conditions.

[8] = 5 mg/kg PO QD Day 0-13, Day 14, mean ± SD
[9] = 50 mg/kg PO QD Day 0-13, Day 14, mean ± SD
[10] = 250 mg/kg PO QD Day 0-13, Day 14, mean ± SD
[11] = HepG2 cells, increasing doses, 1 hour, then with or without 200 pM TGF-β for 48 hours

CCCCCC(O)/C=C/C=C\C/C=C\CCCCCCC(=O)O (stereo not shown) [DS109, 15-hydroxy-eicosa-8Z, 11Z, 13E-trienoic acid]
Body Weight (UUO mice [1]; [8]): 19.1 ± 0.9 g
Left Kidney Weight (UUO mice [1]; [8]): 533 ± 138 mg
Left Kidney-to-Body Weight Ratio (UUO mice [1]; [8]): 2.79 ± 0.65%
Right Kidney Weight (UUO mice [1]; [8]): 137 ± 7 mg
Right Kidney-to-Body Weight Ratio (UUO mice [1]; [8]): 0.71 ± 0.04%
Body Weight (UUO mice [1]; [9]): 18.6 ± 0.6 g
Left Kidney Weight (UUO mice [1]; [9]): 523 ± 91 mg
Left Kidney-to-Body Weight Ratio (UUO mice [1]; [9]): 2.83 ± 0.50%
Right Kidney Weight (UUO mice [1]; [9]): 135 ± 6 mg
Right Kidney-to-Body Weight Ratio (UUO mice [1]; [9]): 0.73 ± 0.05%
Body Weight (UUO mice [1]; [10]): 18.6 ± 0.7 g
Left Kidney Weight (UUO mice [1]; [10]): 425 ± 105 mg
Left Kidney-to-Body Weight Ratio (UUO mice [1]; [10]): 2.26 ± 0.53%
Right Kidney Weight (UUO mice [1]; [10]): 130 ± 13 mg
Right Kidney-to-Body Weight Ratio (UUO mice [1]; [10]): 0.70 ± 0.05%
Sirius red-positive area (%)_Median (UUO mice [2]; 5 mg/kg PO QD Day 0-13, Day 14, median): 3.22 ± 1.47%
Sirius red-positive area (%)_Median (UUO mice [2]; 50 mg/kg PO QD Day 0-13, Day 14, median): 3.28 ± 1.41%
Sirius red-positive area (%)_Median (UUO mice [2]; 250 mg/kg PO QD Day 0-13, Day 14, median): 3.76 ± 0.81%
Alpha-SMA mRNA expression level ([3]; 5 mg/kg PO QD Day 0-13): 3.87 ± 0.82
Collagen Type 1 mRNA expression level ([3]; 5 mg/kg PO QD Day 0-13): 10.76 ± 1.45
TGF-β mRNA expression level ([3]; 5 mg/kg PO QD Day 0-13): 4.29 ± 0.93
TIMP-1 mRNA expression level ([3]; 5 mg/kg PO QD Day 0-13): 153.60 ± 37.12
Alpha-SMA mRNA expression level ([3]; 50 mg/kg PO QD Day 0-13): 4.61 ± 3.15
Collagen Type 1 mRNA expression level ([3]; 50 mg/kg PO QD Day 0-13): 15.23 ± 11.52
TGF-β mRNA expression level ([3]; 50 mg/kg PO QD Day 0-13): 6.01 ± 4.77
TIMP-1 mRNA expression level ([3]; 50 mg/kg PO QD Day 0-13): 167.70 ± 122.60
Alpha-SMA mRNA expression level ([3]; 250 mg/kg PO QD Day 0-13): 4.85 ± 1.22
Collagen Type 1 mRNA expression level ([3]; 250 mg/kg PO QD Day 0-13): 13.88 ± 1.91
TGF-β mRNA expression level ([3]; 250 mg/kg PO QD Day 0-13): 5.48 ± 0.36
TIMP-1 mRNA expression level ([3]; 250 mg/kg PO QD Day 0-13): 180.90 ± 23.12

CC/C=C\C[C@H](O)/C=C/C=C\C/C=C\C/C=C\CCCC(=O)O [15(S)-HEPE, 15(S)-hydroxy-(5Z,8Z,11Z,13E,17Z)-eicosapentaenoic acid]
adhesion of RBCs to heme-activated endothelium ([4]; 50 µM, p=0.01): significantly decreased
adhesion of RBCs to heme-activated endothelium ([4]; 100 µM, p=0.001): significantly decreased
adhesion of SCD patient RBCs to endothelium ([4]; 50 μM, p=0.03): significantly decreased
adhesion of SCD patient RBCs to endothelium ([4]; 100 μM, p=0.01): significantly decreased

CC/C=C\CC(O)/C=C/C=C\C/C=C\C/C=C\CCCC(=O)O (stereo not shown) [15-HEPE, 15-hydroxy-eicosa-5Z,8Z,11Z,13E, 17Z-pentaenoic acid]
localization and abundance of TβR-III, EGFR and caveolin-1 ([5]; 100 μM, 0, 1, 4, 24 hours): did not change
abundance of TβR-I proteins ([5]; 100 μM, 37° C., 0, 1, 4, 24 hours): did not affect the abundance
TβR-II degradation ([5]; 100 μM, 24 hours treatment): induce degradation
translocation of TβR-I to lipid-raft ([5]; 100 μM, 24 hours treatment): induced translocation
TβR-II translocation ([5]; 100 μM, from 1 to 4 hours): induced TβR-II translocation
TGF-β-stimulated intracellular signaling (SMAD2/3 phosphorylation) [6]: inhibits
TGF-β induced epithelial mesenchymal transition (EMT) (pro-fibrotic) protein production [7, 11]: blocked
type II TGF-β receptor [7, 11]: induced degradation
TGF-β signaling ([7]; liver cell lines (HepG2, LX2)): directly inhibit
